Data: US20210238225A1, “PEPTIDOMIMETIC INHIBITORS OF THE PEPTIDYL-PROLYL CIS/TRANS ISOMERASE (PIN1)” (DANA-FARBER CANCER INSTITUTE, INC., priority 2018, published 2021)
Non-standard residues stand in square brackets, D forms with d. Residues, ends and D or L forms follow the SMILES beside them. *: point of attachment. 2Nal = N[C@@H](Cc1ccc2ccccc2c1)C(=O)O; NH(4-Me-benzyl) = Cc1ccc(CN*)cc1; Cit = NC(=O)NCCC[C@H](N)C(=O)O; Pip = O=C(O)[C@@H]1CCCCN1; X3 = C=CS(=O)(=O)*; ClAc = O=C(CCl)*; X1 = O=C(C1CO1)*

Key:
Pin1 Cys 113 = Pin1 Cys 113 (Homo sapiens, UniProt Q13526); assay: Covalent labeling (intact MS); assay type: binding; settings: purified Pin1 with 5 μM inhibitor, 0-3 hr
Method: 5 μg of purified Pin1 protein in 50 μL of 20 mM HEPES pH 7.5 and 75 mM NaCl was incubated with 5 μM of respective Pin1 inhibitors for 0-3 hr. A Shimadzu XR HPLC was used to inject the entire sample onto a self-packed reverse-phase column (1/32 in outer diameter×500 μm inner diameter, 5 cm of POROS 50R2 resin). After desalting, protein was eluted with an HPLC gradient (0%-100% B in 4 min, A=0.2 M acetic acid in water, B=0.2 M acetic acid in acetonitrile, flow rate=10 μl/min) into a LTQ XL mass spectrometer (Thermo Fisher Scientific, San Jose, Calif., USA). LTQ XL MS spectra were acquired in centroid mode using the electron multipliers for ion detection. Mass spectra were deconvoluted using MagTran1.03b2 software (Zhang and Marshall, J. Am. Soc. Mass Spectrom. 9:225-233 (1998)).

Pin1 [1] = molecular target: T1, Pin1 (Homo sapiens, UniProt Q13526); assay: Cellular target engagement, live cell biotin competition assay in TNBC MDA-MB-231 cells; assay type: cell-based; parameters: endogenous in cells; host or cells: MDA-MB-231; settings: TNBC MDA-MB-231 cells; for Cellular Target Engagement?: 5 hours treatment, concentration under E7
Method: TNBC MDA-MB-231 cells were plated in 10 cm plates with 2.5 million cells per plate in 6 mL of media. The day after plating, cells were treated with the indicated concentrations of compound 18 for 5 hours. The cells were washed 2× with 0.9% NaCl (1 mL per 10 cm plate), and collected by scraping with a cell scraper. Cells were lysed in lysis buffer (50 mM Hepes pH 7.5, 150 mM NaCl, 1 mM EDTA, 10% v/v glycerol, 0.5% v/v […], protease inhibitors (Roche)) using 210 μL of cell lysis buffer per 10 cm plate of cells. After clarifying by centrifugation (14,000 rpm for 15 min at 4° C.), 5 μL of each lysate sample was combined with 5 μL of 2× LDS+10% β-mercaptoethanol, boiled for 5 minutes, and set aside for the input loading control (later to be loaded directly in the gel). Then, 200 μL of each lysate was then incubated with 1 μM of compound 2-32 (biotin probe compound) for 1 hour at 4° C. Lysates were then incubated with streptavidin agarose resin (30 μL of 1:1 beads: lysis buffer slurry) (Thermo Scientific™, cat. #20349) for 2 hours at 4° C. Beads were washed 4 times with 500 μL of washing buffer (50 mM Hepes, pH7.5, 10 mM NaCl, 1 mM EDTA, 10% glycerol), then pelleted by centrifugation and dried. The beads were then boiled at 95° C. for 5 minutes in 30 μL of 2× LDS+10% β-mercaptoethanol. Lysates were probed for specified proteins by western blotting using the Bolt system (Life Technologies™).

Pin1 (GST-Pin1) = Pin1 (GST-Pin1) (Homo sapiens, UniProt Q13526); assay: Fluorescence polarization (FP) assay, binding to Pin1; settings: competition with fluorescein-labeled peptide probe; 12 hours pre-incubation at 4° C.; Kenakin Ki equation; read-out: Ki, μM (FP Assay)
Pin1 [2] = molecular target: T1, Pin1; assay: Lysate target engagement (pull down with biotinylated probes; competition assay); assay type: binding; parameters: endogenous in cells; host or cells: MDA-MB-231; settings: for Lysate Target Engagement?: TNBC-MDA-MB-231 lysate, biotin/dtb probes: pull down, others: competition, concentration under E5
Method: (§1) TNBC-MDA-MB-231 cells were lysed in lysis buffer (50 mM Hepes pH 7.5, 150 mM NaCl, 1 mM ethylenediaminetetraacetic acid (EDTA), 10% v/v glycerol, 0.5% v/v NP-40, protease inhibitors (Roche)). After clarifying by centrifugation (14,000 rpm for 15 min at 4° C.), lysates were incubated with the indicated concentrations of candidate compound for 1 hour at 4° C. (500 μg of protein per sample, as determined by BCA). Lysates were then incubated with streptavidin agarose resin (30 μL of 1:1 beads: lysis buffer slurry) (Thermo Scientific™, cat. #20349) for 2 hours at 4° C. Beads were washed 4 times with 500 μL of washing buffer (50 mM Hepes, pH 7.5, 10 mM NaCl, 1 mM EDTA, 10% glycerol), then pelleted by centrifugation and dried. The beads were then boiled at 95° C. for 5 minutes in 30 μL of 2× LDS+10% β-mercaptoethanol. Lysates were probed for specified proteins by western blotting using the Bolt system (Life Technologies™).
as §1, with “mM EDTA,” for “mM ethylenediaminetetraacetic acid (EDTA),”, “by centrifugation,” for “by centrifugation (14,000 rpm for 15 min at 4° C.),”, “were pre-incubated” for “were incubated”, “of” for “of candidate”, “compound 18 overnight” for “compound for 1 hour”, “BCA). The lysates were then incubated with 1 μM of compound 2c (desthiobiotin probe) for 1 hour at 4° C.” for “BCA).”

Pin1 [3] = molecular target: T1, Pin1; assay: X-ray crystallography; parameters: A construct of full-length human Pin1 in a pET28 vector; made in house; host or cells: E. coli BL21 (DE3)
Method: A construct of full-length human Pin1 in a pET28 vector was overexpressed in E. coli BL21 (DE3) in LB medium in the presence of […] of kanamycin. Cells were grown at 37° C. to an OD of 0.8, cooled to 17° C., induced with 500 μM isopropyl-1-thio-D-galactopyranoside, incubated overnight at 17° C., collected by centrifugation, and stored at −80° C. Cell pellets were sonicated in buffer A (50 mM hepes 7.5, 300 mM NaCl, 10% glycerol, 10 mM Imidazole, and 3 mM 2-mercaptoethanol (BME) and the resulting lysate was centrifuged at 30,000×g for 40 min. Ni-NTA beads (Qiagen) were mixed with lysate supernatant for 30 min and washed with buffer A. Beads were transferred to an FPLC-compatible column and the bound protein was washed with 15% buffer B (50 mM hepes 7.5, 300 mM NaCl, 10% glycerol, 300 mM imidazole, and 3 mM BME) and eluted with 100% buffer B. Thrombin was added to the eluted protein and incubated at 4° C. overnight. The sample was concentrated and passed through a Superdex® 200 10/300 column (GE healthcare) in a buffer containing 20 mM hepes 7.5, 150 mMNaCl, 5% glycerol, 3 mM DTT, and 1 mM tris(2-carboxyethyl)phosphine (TCEP). Fractions were pooled, concentrated to approximately 37 mg/ml and frozen at −80° C.
Apo protein at a final concentration of 1 mM was crystallized by sitting-drop (200 nL+200 nL) vapor diffusion at 20° C. in the following crystallization buffer: 3 M (NH4)2SO4, 100 mM BisTris-pH 7.0, 1% PEG400, and 1 mM DTT. A volume of 200 nL of 1 mM compound 2b-6 was added directly to crystals for soaking at 20° C. for 16 hrs. Crystals were transferred briefly into crystallization buffer containing 25% glycerol prior to flash-freezing in liquid nitrogen.
Diffraction data from complex crystals were collected at beamline 24ID-E of the NE-CAT at the Advanced Photon Source (Argonne National Laboratory). Data sets were integrated and scaled using XDS (Kabsch, Acta Crystallogr. D Biol. Crystallogr. D66: 133-144 (2010)). […]

T1 sequence (Q13526 whole entry): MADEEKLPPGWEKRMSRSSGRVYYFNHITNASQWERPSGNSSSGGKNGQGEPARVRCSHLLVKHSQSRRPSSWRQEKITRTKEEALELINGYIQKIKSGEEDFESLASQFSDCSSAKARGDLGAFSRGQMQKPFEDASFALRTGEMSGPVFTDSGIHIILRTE
Pin1 Cys 113, sequence (Q13526 whole entry): as above
Pin1 (GST-Pin1), sequence (Q13526 whole entry): as above

| Ki (Pin1 (GST-Pin1)) | Lysate Target Engagement? (Pin1 [2]) | Lysate Target Engagement? concentration stated for the engagement or pull down (Pin1 [2]; read with the E4 line of the same compound (complete, partial, probe pull down)) | SMILES | Covalent? (In tact MS), % labeling (Pin1 Cys 113) | Cellular Target Engagement? (Pin1 [1]) | Cellular Target Engagement? concentration stated for complete engagement (Pin1 [1]; read with the E6 line) | X-Ray Crystal Structure? (Pin1 [3]) |
| --- | --- | --- | --- | --- | --- | --- | --- |
| 0.35 µM | No | – | C=CS(=O)(=O)N[C@@H](CCC(=O)O)C(=O)N1CCCC[C@H]1C(=O)N[C@@H](Cc1ccc2ccccc2c1)C(=O)N[C@@H](CCCNC(N)=O)C(N)=O [Compound 4, (S)-5-((S)-2-(((S)-1-(((S)-1-Amino-1-oxo-5-ureidopentan-2-yl)amino)-3-(naphthalen-2-yl)-1-oxopropan-2-yl)carbamoyl)piperidin-1-yl)-5-oxo-4(vinylsulfonamido)pentanoic acid] (X3-E[Pip][2Nal][Cit]-NH2) | Yes (93% | – | – | – |
| 0.06 µM | Yes-complete | by 10 μM | COC(=O)CC[C@H](NC(=O)CCl)C(=O)N1CCCC[C@H]1C(=O)N[C@@H](Cc1ccc2ccccc2c1)C(=O)N[C@@H](CCCNC(N)=O)C(N)=O [Compound 2-11, Methyl (S)-5-((S)-2-(((S)-1-(((S)-1-amino-1-oxo-5-ureidopentan-2-yl)amino)-3-(naphthalen-2-yl)-1-oxopropan-2-yl)carbamoyl)piperidin-1-yl)-4-(2-chloroacetamido)-5-oxopentanoate] (ClAc-E(OMe)[Pip][2Nal][Cit]-NH2) | – | No | – | – |
| – | – | – | NC(=O)CC[C@H](NC(=O)[C@H](Cc1ccc2ccccc2c1)NC(=O)[C@@H]1CCCCN1C(=O)[C@H](CCC(=O)O)NC(=O)CCl)C(N)=O [Compound 2b-3, (S)-4-(2-Chloroacetamido)-5-((S)-2-(((S)-1-(((S)-1,5-diamino-1,5-dioxopentan-2-yl)amino)-3-(naphthalen-2-yl)-1-oxopropan-2-yl)carbamoyl)piperidin-1-yl)-5-oxopentanoic acid] (ClAc-E[Pip][2Nal]Q-NH2) | Yes (81% | – | – | Yes |
| 1.61 µM | No | – | NC(=O)NCCC[C@H](NC(=O)[C@H](Cc1ccc2ccccc2c1)NC(=O)[C@@H]1CCCCN1C(=O)[C@H](CCC(=O)O)NC(=O)C1CO1)C(N)=O (stereo partly drawn) [Compound 3b-1, (4S)-5-((S)-2-(((S)-1-(((S)-1-Amino-1-oxo-5-ureidopentan-2-yl)amino)-3-(naphthalen-2-yl)-1-oxopropan-2-yl)carbamoyl)piperidin-1-yl)-4-(oxirane-2-carboxamido)-5-oxopentanoic acid] (X1-E[Pip][2Nal][Cit]-NH2) | Yes (93% | No | – | – |

| SMILES | Ki (Pin1 (GST-Pin1)) | Lysate Target Engagement? (Pin1 [2]) | Lysate Target Engagement? concentration stated for the engagement or pull down (Pin1 [2]; read with the E4 line of the same compound (complete, partial, probe pull down)) | Covalent? (In tact MS), % labeling (Pin1 Cys 113) | Cellular Target Engagement? (Pin1 [1]) | Cellular Target Engagement? concentration stated for complete engagement (Pin1 [1]; read with the E6 line) | X-Ray Crystal Structure? (Pin1 [3]) |
| --- | --- | --- | --- | --- | --- | --- | --- |
| Cc1ccc(CNC(=O)[C@H](CCCNC(N)=O)NC(=O)[C@H](Cc2c[nH]c3ccccc23)NC(=O)[C@@H]2CCCCN2C(=O)[C@H](Cc2ccccc2)NC(=O)CCl)cc1 [Compound 11-23, (S)—N—((S)-3-(1H-indol-3-yl)-1-(((S)-1-((4-methylbenzyl)amino)-1-oxo-5-ureidopentan-2-yl)amino)-1-oxopropan-2-yl)-1-((2-chloroacetyl)-L-phenylalanyl)piperidine-2-carboxamide] (ClAc-F[Pip]W[Cit]-{NH(4-Me-benzyl)}) | 0.004 µM | – | – | Yes (100% | Yes-Complete | at 10 μM | – |
| COC(=O)CC[C@H](NC(=O)CCl)C(=O)N1CCCC[C@H]1C(=O)N[C@@H](Cc1c[nH]c2ccccc12)C(=O)N[C@@H](Cc1ccc(O)cc1)C(=O)NCc1ccc(C)cc1 [Compound 11-1, Methyl (S)-4-(2-chloroacetamido)-5-((S)-2-(((S)-1-(((S)-3-(4-hydroxyphenyl)-1-((4-methyl-benzyl)amino)-1-oxopropan-2-yl)amino)-3-(1H-indol-3-yl)-1-oxopropan-2-yl)carbamoyl)piperidin-1-yl)-5-oxopentanoate] | 0.176 µM | No | – | – | No | – | – |
